Measurements reported in US10449186B2, “Phenylethynyl-substituted benzenes and heterocycles for the treatment of cancer” (UNIVERSITY OF KENTUCKY RESEARCH FOUNDATION, priority 2017, dated 2019).
Like-named read-outs stand apart in the source and are kept apart here.

Experiments:
[1] = test system: LS174T colon cancer cells; experiment: LS174T cell proliferation assay; format: cell-based; design: effects on LS174T colon cancer cell proliferation (Table 3): unit not given here; settings: for IC50 / inhibition at 0.03 µM / inhibition at 0.1 µM / inhibition at 1 µM / inhibition at 10 µM: Homo sapiens, LS174T; for IC50: read-out: IC50, LS174T cell proliferation assay
Procedure: Cell proliferation assay. LS174T cells were grown in RPMI medium (Mediatech) supplemented with 5% fetal bovine serum and 1% penicillin/streptomycin. For cell proliferation assays, 3×10^4 cells/well growing in 12-well plates were treated with DMSO or inhibitors. The cell numbers and viability were analyzed by Vi-Cell Cell Viability Analyzer after 4 days. The IC50 values were calculated with GraphPad Prim 5.

[2] = test system: LS174T colon cancer cells; settings: data from Sviripa et al. 2014, cited from earlier work; for inhibition of proliferation (%) of colon cancer LS174T cells: Table 1; for inhibition of cell proliferation (%) of colon cancer LS174T cells: Table 2
cyclin D1 = experiment: Western blot, cyclin D1 expression in LS174T cells; format: cell-based; settings: 300 nM
Procedure: (§1) FIG. 2A is a western blot showing the effects of 4-((2,6-difluorophenyl)ethynyl)-N,N-dimethylaniline (2), 4-((2,6-difluorophenyl)ethynyl)-N,N-dimethylisoquinolin-1-amine (5nn), and 4-((2,6-difluorophenyl)ethynyl)-N-methylisoquinolin-1-amine (5oo) on the expression of […] and p21^Wif1/Cip1 in LS174T cells at 300 nM concentrations.
(§2) Western blotting. Western blotting was performed as described previously. The following antibodies were used: anti-c-myc (Epitomics, 1472-1), anti-p21^Wif1/Cip1 (Cell Signaling, 2947), anti-β-tubulin (DSHB, E7).

p21^Wif1/Cip1 = experiment: Western blot, p21^Wif1/Cip1 expression in LS174T cells; format: cell-based; settings: 300 nM
Procedure: as §1, §2

[3] = read-out: inhibition of cell proliferation (%) of colon cancer LS174T cells
[4] = read-out: inhibition of LS174T colon cancer cell proliferation

Compound | inhibition at 0.1 µM [1, 3] | inhibition at 1 µM [1, 3] | inhibition at 10 µM [1, 3] | melting point | other results
CN(C)c1ccc(C#Cc2c(F)cccc2F)cc1 [Compound 2, 4-((2,6-difluorophenyl)ethynyl)-N,N-dimethylaniline] | – | – | – | – | water solubility (Water solubility; parent compound): sparingly water-soluble; IC50 [1]: 25.1 ± 1.3 nM; inhibition of proliferation (%) of colon cancer LS174T cells ([2]; 100 nM): 85.2%; inhibition of proliferation (%) of colon cancer LS174T cells ([2]; 1 μM): 99.5%; inhibition of cell proliferation (%) of colon cancer LS174T cells ([2]; 30 nM): 57 ± 1.2%; inhibition of cell proliferation (%) of colon cancer LS174T cells ([2]; 100 nM): 85.2 ± 0.5%; inhibition of cell proliferation (%) of colon cancer LS174T cells ([2]; 1 μM): 99.5 ± 0.1%; cyclin D1 expression (western blot) (cyclin D1): inhibited cyclin D1 expression; p21^Wif1/Cip1 expression (western blot) (p21^Wif1/Cip1): induced p21^Wif1/Cip1
CN(C)c1ncc(C#Cc2c(F)cccc2F)c2ccccc12 [Compound 5nn, 4-((2,6-difluorophenyl)ethynyl)-N,N-dimethylisoquinolin-1-amine] | 81.7 ± 2.1% | 99.5 ± 0.1% | 97.6 ± 1.5% | 122 to 124 °C | IC50 [1]: 11.8 ± 1.5 nM; inhibition at 0.03 µM [1, 3]: 86 ± 2%; cyclin D1 expression (western blot) (cyclin D1): inhibited cyclin D1 expression; p21^Wif1/Cip1 expression (western blot) (p21^Wif1/Cip1): induced p21^Wif1/Cip1
CNc1ncc(C#Cc2c(F)cccc2F)c2ccccc12 [Compound 5oo, 4-((2,6-Difluorophenyl)ethynyl)-N-methylisoquinolin-1-amine] | 99.5 ± 0.5% | 99.8 ± 0.2% | 98.9 ± 1% | 118 to 120 °C | IC50 [1]: 4.2 ± 0.2 nM; inhibition at 0.03 µM [1, 3]: 94.5 ± 1.5%; cyclin D1 expression (western blot) (cyclin D1): inhibited cyclin D1 expression; p21^Wif1/Cip1 expression (western blot) (p21^Wif1/Cip1): induced p21^Wif1/Cip1
CN1CCN(c2ncc(C#Cc3c(F)cccc3F)c3ccccc23)CC1 [Compound 5pp, 4-((2,6-Difluorophenyl)ethynyl)-1-(4-methylpiperazin-1-yl)isoquinoline] | – | 23.2 ± 9.4% | 100% | – | water solubility (Water solubility; hydrochloride salts): completely water-soluble
CN(C)c1ncc(C#Cc2c(F)cccc2F)c2ncccc12 [Compound 5qq, 8-((2,6-Difluorophenyl)ethynyl)-N,N-dimethyl-1,6-naphthyridin-5-amine] | 59.5 ± 3.5% | 87.9 ± 0.8% | 85.2 ± 1% | 149 to 150 °C | water solubility (Water solubility; hydrochloride salts): completely water-soluble; inhibition at 1 µM [1, 4]: > 75%
Fc1cccc(F)c1C#Cc1cccc2ncccc12 [Compound 5v, 5-((2,6-Difluorophenyl)ethynyl)quinoline] | – | 43.1 ± 11.2% | 94.7 ± 2.9% | 98 to 100 °C | –
Fc1cccc(F)c1C#Cc1ccc2ncccc2c1 [Compound 5w, 6-((2,6-Difluorophenyl)ethynyl)quinoline] | – | 11 ± 30.4% | 80.1 ± 1% | 91 to 93 °C | –
Fc1cccc(F)c1C#Cc1ccc2cccnc2c1 [Compound 5x, 7-((2,6-Difluorophenyl)ethynyl)quinoline] | 2.9 ± 14% | 90.7 ± 0.6% | 99.4 ± 0.3% | 123 to 125 °C | inhibition at 1 µM [1, 4]: > 75%
Fc1cccc(F)c1C#Cc1cccc2cccnc12 [Compound 5y, 8-((2,6-Difluorophenyl)ethynyl)quinoline] | – | 47.6 ± 3.5% | 92.7 ± 2.9% | 108 to 110 °C | –
Fc1cccc(F)c1C#Cc1ccc2nc(Cl)ccc2c1 [Compound 5z, 2-Chloro-6-((2,6-difluorophenyl)ethynyl)quinoline] | – | 21.2 ± 11.4% | 63.3 ± 2.3% | 137 to 138 °C | –
Fc1cncc(F)c1C#Cc1ccccc1 [Compound 7a, 3,5-Difluoro-4-(phenylethynyl)pyridine] | – | – | – | 52 to 54 °C | effects on LS174T colon cancer cell proliferation (Table 3) ([1]; 30 nM): 5.3; effects on LS174T colon cancer cell proliferation (Table 3) ([1]; 100 nM): 24.7; effects on LS174T colon cancer cell proliferation (Table 3) ([1]; 300 nM): 12.2
Nc1ccc(C#Cc2c(F)cncc2F)cc1 [Compound 7b, 4-((3,5-Difluoropyridin-4-yl)ethynyl)aniline] | – | – | – | 156 to 158 °C | effects on LS174T colon cancer cell proliferation (Table 3) ([1]; 30 nM): 11.4; effects on LS174T colon cancer cell proliferation (Table 3) ([1]; 100 nM): 30.5; effects on LS174T colon cancer cell proliferation (Table 3) ([1]; 300 nM): 36.2
CNc1ccc(C#Cc2c(F)cncc2F)cc1 [Compound 7c, 4-((3,5-Difluoropyridin-4-yl)ethynyl)-N-methylaniline] | – | – | – | 149 to 151 °C | effects on LS174T colon cancer cell proliferation (Table 3) ([1]; 30 nM): 20.3; effects on LS174T colon cancer cell proliferation (Table 3) ([1]; 100 nM): 49.5; effects on LS174T colon cancer cell proliferation (Table 3) ([1]; 300 nM): 62.6
